Data reported in patent US9018237B2, “Methods for improved wound closure employing olivamine and endothelial cells” (priority 2009, dated 2015).

Test system: human microvascular endothelial cells
Test: in vitro model of wound healing (cell migration), time for 50% of wound to heal
Format: cell-based
From the text: The time for wounds to heal by 50% under the various treatment conditions was quantified.

OCCc1ccc(O)c(O)c1 [Hydroxytyrosol]
less effective in wound healing than the present art (hydroxytyrosol alone versus the combination (Table 1)): 30%

NCCS(=O)(=O)O [L-Taurine]
Time for 50% wound to heal (Table 9, single ingredients, Present Art and Present Art without one ingredient): 22.5 h

CC(=O)N[C@@H](CS)C(=O)O [N-acetylcysteine, reference compound]
effect on time and extent of wound healing (in words) (compared to untreated or to the additive effect of the compounds): increased the time to 50% healing compared to untreated
